Source: patent US4690949A, “Therapeutic drug for dementia” (priority 1985, dated 1987)
“Also recorded” adds a separate entry of the source.

What was measured:
[1] = Acute toxicity LD50 in mice; conditions: mouse, in vivo
[2] = system: patients with dementia; experiment: Side effects in clinical study; assay type: in vivo
Procedure: (§1) Administration schedule of L-Threo-DOPS and schedule of clinical evaluation are as follows: [drawing 3]
(§2) Threo-DOPS were administered as follows; immediately after meals at 8:00, 12:00 and 17:00. Various psychological tests were performed at 10:00. The evaluations were performed on the day before and after administration of Threo-DOPS.

[3] = system: parkinsonian patients; experiment: Clinical studies on parkinsonian patients; assay type: in vivo
[4] = system: decarboxylase; conditions: compared with L-DOPA; cited from earlier work
[5] = system: patients with dementia; experiment: Overall clinical evaluation of effectiveness in dementia; assay type: in vivo
Source text: (§3) We have used following various tests: WAIS, Hasegawa's scale for intelligence, Osaka University tests for activity of daily life as well as mental functions, and records of psychological states. Furthermore, free association of letters and categories, paired memory test, Bourdon's test could safely be used to evaluate intelligence of demented patients, even with handicaps in hands or legs. We have done each test 4 times per patient at each point to evaluate the patient's mental state and thus this made us possible to get satisfactory statistical analysis.
Dementia could be classified into various clinical types according to the ethiology; such as Alzheimer's disease (AZ), senile dementia of Alzheimer type (SDAT), dementia due to the cerebral vascular diseases. We included these various types of dementia in this study.
as §1, §2
Evaluations were made as described below or by the methods used commonly.

[6] = system: aromatic L-amino acid decarboxylase; conditions: cited from earlier work
[7] = system: patients with dementia; experiment: Related words paired memory test; assay type: in vivo; parameters: key to Related words paired memory test (change after treatment): improved; .dwnarw.: aggravated; →: unchanged
Source text: as §3, §1, §2
This retention test using 10 pairs of related words was conducted in 4 trials and the results were compared before and after the treatment.

[8] = system: patients with dementia; experiment: P300 auditory evoked brain potential; assay type: in vivo; parameters: key: +: appeared; -: disappeared
Procedure: as §1, §2
When two kinds of auditory stimuli are given randomly, a positive brain potential (P300) appears with a latency of about 300 msec in normal subjects and this response has been considered to reflect gnostic function. [Sutton, S. et al.: Science 150, 1187-1188 (1965)].
Using the method of Goodin, D. S. et al., the present inventors asked the subject to hear sounds of 1000 Hz and also 2000 Hz randomly given at intervals of about 1 second and to count the sounds of 2000 Hz which appeared 15% of the total number of sounds which were 400. The evoked potentials were averaged and totalled for each 1000 Hz and 2000 Hz stimulations and the latency and the amplitude of P300 were measured.

[9] = system: patients with dementia; experiment: Hasegawa's scale for intelligence; assay type: in vivo; parameters: key to Hasegawa (change after treatment): improved; .dwnarw.: aggravated; →: unchanged; conditions: for Hasegawa (change after treatment): 10 percent change from pretreatment baseline score
Source text: as §3, §1, §2
An increase or decrease of 10 percent from the pretreatment baseline score was regarded as "improved" or "aggravated".

[10] = system: patients with dementia; experiment: Bourdon's test (Bourdon's delection test); assay type: in vivo; parameters: key to Bourdon's test (change after treatment): improved; .dwnarw.: aggravated; →: unchanged
Source text: as §3, §1, §2
3. Bourdon's delection test:
Matsumoto K and Samezima K: Introduction to Clinical Psychology Tests, Igaku Shuppan Sha (Tokyo), 1977, pp. 83-87
In this test, the original method was modified by enlarging the chart to make it easier for patients to see and conducting 4 test runs starting at different lines to investigate how far the task could be done in 30 seconds.

[11] = Clinical comparison of L-isomer and DL-form activity; assay type: in vivo
[12] = system: patients with dementia; experiment: Digit symbol test (modified WAIS); assay type: in vivo
Source text: as §3, §1, §2
The original method of WAIS was partially modified. The test was repeated 4 times and counted time-in seconds which was required to finish one line or checked how far the subject could go along one line in 30 seconds.

[13] = system: patients with dementia; experiment: N test (N mental function test); assay type: in vivo; parameters: key to N test (change after treatment): improved; .dwnarw.: aggravated; →: unchanged
Source text: as §3, §1, §2
Inoue, O.: Medical Journal of the Osaka University 26, 375-394 (1974)

[14] = system: patients with dementia; experiment: Free association (letters and categories); assay type: in vivo; parameters: key to Free association, Letter / Free association, Category: improved; .dwnarw.: aggravated; →: unchanged
Source text: as §3, §1
Threo-DOPS were administered as follows; immediately after meals at 8:00, 12:00 and 17:00. Various psychological tests were performed at 10:00. The evaluations were performed on the day before and after administration of Threo-DOPS. […]
In this test, the subject was asked to say what would occur in mind by free association in response to the 4 letters of " " (a), " " (ka), " " (sa) and " " (ha) and the four categories of "fruits" or "vegetables", "flowers or trees", "animals" and "countries of the world" within 90 seconds and the number of words every 30 seconds was counted.

[15] = Case 1, Alzheimer's disease (case report)
[16] = Case 9, cerebral infarction (case report)
[17] = Case 7, left thalamic hemorrhage (case report)

SMILES: N[C@H](C(=O)O)[C@H](O)c1ccc(O)c(O)c1 (relative stereo) [DL-Threo-DOPS]
- LD50 ([1]; ip): ~10000 mg/kg
- LD50 ([1]; po): ≥ 10000 mg/kg
- Side effects (clinically) ([2]; human, in vivo): almost no side effect has been observed

SMILES: N[C@H](C(=O)O)[C@H](O)c1ccc(O)c(O)c1 (relative stereo) [Threo-DOPS, threo-3,4-dihydroxyphenylserine]
- Effectiveness as a NE precursor [3]: effectiveness of Threo-DOPS as a NE precursor
- Effectiveness of combined use of DCI [4]: not so effective as that for L-DOPA
- Effect on symptoms of dementia ([5]; summary statement): improving effect on some symptoms of dementia
- Conversion to norepinephrine (NE) ([6]; in the living body): decarboxylated by an action of an aromatic L-amino acid decarboxylase existing in the living body and converted into norepinephrine (NE); also recorded: gradually converted to NE in the living body
- Rate of decarboxylation relative to L-DOPA ([6]; previous study of the present applicants): considerably smaller than that of L-DOPA
- Side effects ([2]; human, in vivo): without any appreciable side effects

SMILES: N[C@@H](Cc1ccc(O)c(O)c1)C(=O)O [L-DOPA, reference compound]
- Decarboxylation to dopamine ([6]; in the living body): decarboxylated to the corresponding catecholamine, dopamine

SMILES: N[C@H](C(=O)O)[C@H](O)c1ccc(O)c(O)c1 [L-Threo-DOPS]
- LD50 ([1]; ip): ~10000 mg/kg
- LD50 ([1]; po): ≥ 10000 mg/kg
- Related words paired memory test, statistics ([7]; Case 1, AZ): *** (P<0.01)
- Related words paired memory test [7, 15]: Improvements were found
- Related words paired memory test, statistics ([7]; Case 2, AZ): *** (P<0.01)
- Related words paired memory test (change after treatment) ([7]; Case 4, CI): →
- Related words paired memory test (change after treatment) ([7]; Case 5, CI): .uparw.
- Related words paired memory test, statistics ([7]; Case 5, CI): * (P<0.05)
- Related words paired memory test (change after treatment) ([7]; Case 6, AZ/CI, person): →
- Related words paired memory test, statistics ([7]; Case 9, CI): ** (P<0.02)
- Related words paired memory test [7, 16]: Improvements were found
- P300 ([8]; Case 2, AZ): +
- P300 ([8]; Case 3, CI): -
- P300 ([8]; Case 4, CI): +
- P300 ([8]; Case 5, CI): -
- P300 ([8]; Case 6, AZ/CI, person): -
- P300 [8, 17]: could not be observed before the treatment, appeared after the treatment
- P300 ([8]; Case 9, CI): -
- Overall evaluation ([5]; Case 1, Alzheimer's disease): moderately improved
- Global evaluation ([5]; Case 7, left thalamic hemorrhage): markedly improved
- Global evaluation ([5]; Case 9, cerebral infarction): moderately improved
- Evaluation parameters showing aggravation ([5]; Cases 1 to 9, Table 1): only a few evaluation parameters showed aggravation
- Subjects showing improvements in one or more tests ([5]; Cases 1 to 9, Table 1): all subjects but Case 6 showed improvements in one or more tests
- Overall evaluation: efficacy against symptoms of patients with dementia ([5]; as a whole): had efficacy against symptoms of patients with dementia
- Hasegawa (change after treatment) ([9]; Case 3, CI): .dwnarw.
- Hasegawa (change after treatment) ([9]; Case 6, AZ/CI, person): →
- Hasegawa's scale [9, 17]: Improvements were obtained
- Hasegawa's scale [9, 16]: Improvements were found
- Bourdon's test (change after treatment) ([10]; Case 1, AZ): →
- Bourdon's test (change after treatment) ([10]; Case 2, AZ): →
- Bourdon's test (change after treatment) ([10]; Case 3, CI): →
- Bourdon's test, statistics ([10]; Case 4, CI): ** (P<0.02)
- Bourdon's test (change after treatment) ([10]; Case 6, AZ/CI, person): →
- Bourdon's test (change after treatment) ([10]; Case 9, CI): →
- Effect of L-isomer at half the amount of the DL-mixture ([11]; administered in half the amount of the DL-mixture): nearly the same effect as the DL-mixture
- Activity of L-isomer relative to DL-form ([11]; clinical study): twice as active as the DL-form
- Side effects ([2]; Case 9, cerebral infarction): No remarkable side effects were found
- Side effects (clinically) ([2]; human, in vivo): almost no side effect has been observed
- Digit symbol test, statistics ([12]; Case 1, AZ): * (P<0.05)
- Digit symbol test [12, 15]: Improvements were found
- N test (change after treatment) ([13]; Case 5, CI): →
- N test (change after treatment) ([13]; Case 6, AZ/CI, person): →
- N mental function test [13, 17]: Improvements were obtained
- N mental function test [13, 16]: Improvements were found
- Free association, Category ([14]; Case 2, AZ): →
- Free association, Letter ([14]; Case 2, AZ): →
- Free association, Category ([14]; Case 3, CI): →
- Free association, Category ([14]; Case 4, CI): →
- Free association, Letter ([14]; Case 4, CI): →
- Free association, Category ([14]; Case 5, CI): →
- Free association, Letter ([14]; Case 5, CI): →
- Free association, Category ([14]; Case 6, AZ/CI, person): →
- Free association, Letter ([14]; Case 6, AZ/CI, person): →
- Free association of things [14, 17]: Improvements were obtained
- Free association, Category ([14]; Case 9, CI): →
- Free association, Letter ([14]; Case 9, CI): →
